Measurements: patent publication US20080311126A1, “Antisense Oligonucleotides Directed to Ribonucleotide Reducatase R2 and Uses Thereof in Combination Therapies for the Treatment of Cancer” (Genesense Technologies, Inc, priority 2004, published 2008)
Entries after “also recorded” stand apart in the source; their conditions may differ.

Legend:
Assay type in all cases: in vivo
[1] = tested on: Hela S3 human cervix epitheloid carcinoma cells; experiment: Hela S3 hydroxyurea resistant cervix carcinoma xenograft in SCID mice
Description: Hela S3 human cervix epitheloid carcinoma cells (5×10^5 cells in 100 μl of PBS) were subcutaneously injected into the right flank of 6-7 weeks old female SCID mice. Hela S3 is a hydroxyurea resistant cell line. After the size of tumour reached an approximate volume of 100 mm^3, 3 days post tumour cell injection, SEQ ID NO:1 was administered by bolus infusion into the tail vein every other day at 10 mg/kg 6 times. Control animals received saline alone for the same period. Antitumour effect of SEQ ID NO:1 was further compared to that of Hydroxyurea or Cisplatin alone or in combination. Hydroxyurea was administered intraperitoneally every day at a dose of 250 mg/kg for 10 days. Cisplatin was administered intravenously once a week for three weeks at a dose of 4 mg/kg. Antitumour activities were estimated by the inhibition of tumour volume, which was measured with caliper. Each point represents mean tumour volume calculated from 10 animals per experimental group. […] As expected, treatment with Hydroxyurea during the same period was ineffective against Hydroxyurea-resistant tumour.

[2] = tested on: A2058 human melanoma cells; experiment: A2058 melanoma xenograft in CD-1 nude mice
Description: A2058 human melanoma cells 1×10^7 cells in 100 μl of PBS) were subcutaneously injected into the right flank of 6-7 week old female CD-1 nude mice. A2058 is a metastatic melanoma cell line. After the size of tumour reached an approximate volume of 100 mm^3, 6 days post tumour cell injection, SEQ ID NO:1 was administered by bolus infusion into the tail vein every other day at 10 mg/kg. Control animals received saline alone for the same period. Antitumour effect of SEQ ID NO:1 was further compared to that of dacarbazine (DTIC) alone or that of SEQ ID NO:1 in combination with DTIC. DTIC was administered intravenously for 5 days in a row from day 6-10 at a dose of 80 mg/kg in 100 μl saline. All treatments were stopped at day 24. A day after the last treatment, tumours were excised from the animals and their weights were measured.

[3] = tested on: A498 human renal carcinoma; experiment: A498 renal tumour xenograft in SCID mice, SEQ ID NO:1 and interferon alpha
Description: Cell line: Human renal carcinoma cell line (A498) was grown as monolayer culture in Minimum essential medium (α-MEM) supplemented with 10% fetal bovine serum (FBS), 0.1 mM non-essential amino acid, 1.0 mM sodium pyruvate, 100 U/ml penicillin, 100 μg/ml streptomycin and 0.25 μg/ml amphotericin B and 2 mM L-alanyl-1-glutamine at 37° C. in an atmosphere of 5% CO2 in air. The tumour cells were routinely subcultured twice weekly by trypsin-EDTA treatment. The cells were harvested from subconfluent logarithmically growing culture by treatment with trypsin-EDTA and counted for tumour inoculation.
Tumour Inoculation: An acclimation period of at least 7 days was allowed between animal receipt and commencement of tumour inoculation. When the female SCID mice were 6-7 weeks of age (20-25 g), each mouse was subcutaneously injected with 9×10^6 A498 human renal carcinoma cells in 0.1 ml of PBS at the right flank of the mice to induce tumour growth.
Dose Preparation and Treatment: The dose for SEQ ID NO:1 was formulated using the following procedure. From a concentrated stock solution (usually prepared in ddH2O at a concentration of 50 mg/ml and kept at −80° C.), SEQ ID NO:1 was diluted with saline to achieve a final target concentration of 1 or 2.5 mg/ml on the first day of dosing. Enough SEQ ID NO:1 was diluted so that the compound could be administered by bolus infusion into the tail vein every other day for the duration of the experiment. Recombinant interferon alfa-2b (ntron A™) was employed according to the dose and treatment schedules below. The treatments were started 20 days after the tumour cell inoculation when the tumour size reached an approximate volume of 200 mm^3. Each treatment group contained 10 tumour-bearing mice. Routes of administration are as follows: intravenous (i.v.) and intratumoural (i.t.).
• 1. Saline treated group-1: saline 0.1 ml/mouse/48 hours, i.v., n=10 • 2. Saline treated group-2: saline 0.05 ml/mouse/5 days/week, i.t., n=10 • 3. SEQ ID NO:1 treated group: 1 mg/kg/48 hours in 0.1 ml saline, i.v. n=10 • 4. SEQ ID NO:1 treated group: 2.5 mg/kg/48 hours in 0.1 ml saline, i.v., n=10 • 5. […]
Treatment started from day 20 after inoculation of human renal tumour cells. […]
Endpoints: The effects of SEQ ID NO:1 and Intron A on tumour growth was determined. Tumour sizes were measured every week from day 20 after the tumour cell inoculation in two dimensions using a caliper, and the volume was expressed in mm^3 using the formula: V=0.5 a×b^2, where a and b are the long and short diameters of the tumour, respectively. Mean tumour volumes calculated from each measurement were then plotted in a standard graph to compare the anti-tumour efficacy to that of controls. A day after the last treatment, tumours were excised from the animals and their weights were measured. […]

[4] = tested on: PC-3 human prostatic cancer cells; experiment: PC-3 prostatic tumour xenograft in SCID mice; conditions: FIG. 14A; SEQ ID NO:1 10 mg/kg 18 times; mitoxantrone 2 mg/kg once
Description: In both experiments, PC-3 human prostatic cancer cells (1×10^7 cells in 100 μl of PBS) were subcutaneously injected into the right flank of 6-7 weeks old male SCID mice. After the size of tumour reached an approximate volume of 50 mm^3, 14 days post tumour cell injection, SEQ ID NO:1 was administered by bolus infusion into the tail vein every other day at 10 mg/kg 18 times (FIG. 14A) or 17 times (FIG. 14B), respectively. Control animals received saline alone for the same period. Antitumour effect of SEQ ID NO:1 was further compared to that of mitoxantrone (Novantrone®) alone or in combination. Mitoxantrone was administered intravenously once at the beginning of the treatments at a dose of 2 mg/kg (FIG. 14A) or once a week for four weeks at a reduced dose of 0.8 mg/kg (FIG. 14B). All treatments were stopped at day 50 (FIG. 14A) or 48 (FIG. 14B), respectively. A day after the last treatment, tumours were excised from the animals and their weights were measured.

Sequence: GGCTAAATCGCTCCACCAAG (chemistry not given here) [SEQ ID NO: 1, antisense oligonucleotide that hybridizes to the coding region of human ribonucleotide reductase R2 mRNA]
- Tumour weight as % of saline control ([1]; Hela S3 (cervix), hydroxyurea resistance, SCID): 24%
- antitumour effect (tumour volume) ([1]; SEQ ID NO:1 10 mg/kg 6 times, Hydroxyurea 250 mg/kg i.p. 10 days, Cisplatin 4 mg/kg i.v. weekly): significant delay of tumour growth; also recorded: superior to the inhibitory effects observed with Cisplatin alone
- Tumour weight as % of saline control ([2]; A2058 (melanoma), Mouse CD-1): 20%
- antitumour effect (tumour weight) ([2]; SEQ ID NO:1 10 mg/kg every other day i.v., DTIC 80 mg/kg i.v. 5 days): significant delay of tumour growth; also recorded: superior to the inhibitory effects observed with DTIC alone
- anti-tumour efficacy (tumour volume, tumour weight) ([3]; Example 6, SEQ ID NO:1 1 or 2.5 mg/kg/48 hours i.v., Intron A 10^3 or 10^5 unit 5 days/week i.t.): significant anti-tumour efficacy
- anti-tumour efficacy (tumour volume, tumour weight) ([3]; Example 7, SEQ ID NO:1 2.5 mg/kg/2ds i.v., 10000 units Intron A x5/week for 2 weeks i.t.): significant anti-tumour efficacy
- antitumour effect (tumour weight) [4]: significant delay of tumour growth
